Experiments:
[1] = tested on: Staph. aureus stationary phase bacteria; assay: Bactericidal activity against stationary-phase cultures (CFU counts), Staph. aureus; assay type: cell-based, Staphylococcus aureus; settings: 5 μg/mL of test compound
[2] = tested on: E. coli persister bacteria; assay: Bactericidal activity against persistent bacteria (CFU counts), E. coli; settings: 25 μg/mL of test compound

| Structure (SMILES) | log kill [1] | log kill [2] |
| --- | --- | --- |
| COc1cc(OC)c2nc(C)c3c(c2c1)N(c1cccc(Oc2ccccc2)c1)CC3.O=C(O)C(F)(F)F [Example 1(a), 6,8-Dimethoxy-4-methyl-1-(3-phenoxyphenyl)-2,3-dihydro-1H-pyrrolo[3,2-c]quinoline trifluoroacetate] | 3.55 |  |
| Cc1nc2ccc(Oc3ccccc3)cc2c2c1CCN2Cc1ccccc1 [Example 1(h), 1-Benzyl-4-methyl-8-phenoxy-2,3-dihydro-1H-pyrrolo[3,2-c]quinoline] |  | 3.83 |
